From publication PMC3545992, “Trisubstituted Pyrazolopyrimidines as Novel Angiogenesis Inhibitors” (PLoS ONE, 2013)
One block for each compound: values may come before it.

Tests used:
[1] = test system: HUVECs; experiment: Chemotaxis assay in FCS gradient (µ-slides Chemotaxis); assay type: cell-based, human; details: for chemotaxis of endothelial cells (in words): 10 µM; for inhibition at 10 µM: Homo sapiens, HUVEC, read-out: inhibition of chemotaxis in accumulative distance
Experimental: Figure 5 LGR 1404, 1406 and 1407 decrease chemotaxis of endothelial cells. Chemotaxis of HUVECs in the presence or absence of 10 µM of the indicated compounds was determined in µ-slides Chemotaxis. A: Quantitative evaluation of accumulated and euclidean distance, velocity and y-forward migration index (n = 3, mean ± SEM, * p<0.05, One Way ANOVA, Dunnett). B: Representative cell tracking plots of untreated and treated cells.
The effect of the LGR compounds on endothelial cell chemotaxis was determined using Collagen IV coated μ-slides Chemotaxis (ibidi, Martinsried, Germany). HUVECs (5×10^6 cells per ml) were seeded into the observation channel of the slides according to the manual of the manufacturer, and the cells were allowed to attach for 4 hours. Then, the chambers of the chemotaxis slide were completely filled with serum-free medium M 199; and growth medium containing 30% FCS was added to one chamber in order to generate an FCS-gradient from 0% to […]. 10 µM of the indicated compounds were added both to the M199 and to the 30% FCS. Chemotaxis was observed over 20 hours by live-cell imaging with a Zeiss LSM 510 META confocal microscope equipped with an incubator stage (EMBLem, Heidelberg, Germany). A time series was collected taking 1 picture every 10 minutes. For cell tracking and data analysis, the manual tracking plug-in (Fabrice Cordelieres) and the Chemotaxis and Migration Tool (Version 1.01, ibidi, Martinsried, Germany) for ImageJ were used. Euclidean distance (direct distance from the starting point to the end point) was used as an indicator of directionality of movement, accumulative distance (sum of all migrated distances from track to track) and velocity (mean velocity of every cell calculated as ratio between track to track distance and time) were used as a measure for total motility.

[2] = test system: chorioallantoic membrane (CAM); experiment: Chorioallantoic membrane (CAM) assay, VEGF-induced vessel formation; assay type: in vivo, white leghorn; details: 250 nmol compound with 2.5 ng VEGF per cellulose disc, 24 h
Experimental: Fertilized white leghorn eggs were incubated for 72 h at 37°C in humidified atmosphere. After transferring the growing embryo into Petri dishes, a second incubation period of 72 h followed. At day 6, cellulose discs with 2.5 ng VEGF/250 nmol compound were placed on the membrane. 2.5 ng VEGF/DMSO was used as control. Pictures were taken after 24 h of stimulation. Representative images out of at least three experiments are shown.
Fertilized white leghorn eggs were incubated for 72 h at 37°C in humidified atmosphere. After transferring the growing embryo into a Petri dish, a second incubation period of 72 h followed. At day 6, two cellulose discs, one with 2.5 ng VEGF (VEGF 165, human recombinant from PeproTech GmbH, Hamburg, Germany)/250 nmol compound and the other with 2.5 ng VEGF/DMSO as control were placed on one CAM. After 24 h of stimulation, the vascular structure in the stimulated areas of the CAM was visualized using a stereomicroscope and a CCD camera (Olympus, Munich, Germany) and pictures were taken. The cellulose disks were produced as follows: after preparing a cellulose solution (2.5% hydroxyethyl cellulose, 2% polyvinylpyrrolidone (PVP 17), 2% polyethylene glycol (PEG 400) in water), the mixture was autoclaved, resulting in a homogenized, clear solution. For each disk, 200 μl of the warm solution were filled into the preformed circles of the lid of a 96 well plate and allowed to polymerize under a laminar air flow for 48 h. Finally, the cellulose disks were removed using tweezers and stored in a sterile Petri dish until use.

[3] = test system: HUVECs; experiment: Tube formation assay on Matrigel; assay type: cell-based, human; details: 10 µM, 16 h
Experimental: Figure 6 LGR 1404, 1406 and 1407 inhibit tube formation at 10 µM. HUVECs were seeded onto a matrix of growth-factor reduced Matrigel^TM in the presence or absence of the respective concentration of the compounds. After 16 h of incubation, images were taken and tube characteristics were quantified. A: Number of tubes (n = 3, mean ± SEM, * p<0.05, One Way ANOVA, Dunnett). B: Number of branching points (n = 3, mean ± SEM, * p<0.05, One Way ANOVA, Dunnett). C: Tube total length (n = 3, mean ± SEM, * p<0.05, One Way ANOVA, Dunnett). D: Representative images of the tube formation assay and the software based tube recognition (structures identified as tubes are blue) in a control (Co, left panel) and after treatment with LGR 1406 (10 µM, right panel).
Pre-cooled BD Matrigel^TM Matrix Growth Factor Reduced (GFR) (BD Biosciences, Heidelberg, Germany) was filled into the lower compartment of μ-slide Angiogenesis wells (ibidi GmbH, Martinsried, Germany) on ice. For polymerization of the Matrigel^TM Matrix, the slides were incubated at 37°C for 30 min. 12,000 HUVECs/well were seeded onto the Matrigel^TM and stimulated for 16 h. The extent of tube formation was determined by light microscopy using the TILLvisON system. Quantitative image analysis of tube length, number of branching points and tube number was performed with a software tool from Wimasis GmbH, Munich.

[4] = target: T1, Cdk7/CycH/MAT1 (Homo sapiens, UniProt P50613); experiment: In vitro kinase profile (ProQinase); assay type: biochemical
T1 construct: purchased ProQinase (Freiburg, Germany)
Experimental: (§1) Therefore, it was of interest to see which kinases, especially which Cdks, are inhibited by those compounds. The kinase profiling was performed by ProQinase (Freiburg, Germany) for LGR 1406 and 1407. For LGR 1404 kinase profiling has recently been published previously. LGR 1406 and 1407 were tested for their IC50 in a panel of 24 kinases, including the Cdk1, Cdk2, Cdk4, Cdk5, Cdk6, Cdk7 and Cdk9. The other kinases tested were PTK6, EGFR, FAK, FGFR1 and FGFR2, NLK, PAK4, VEGFR1 and VEGFR2, MEK1, ROCK1, RAF1, ALK, RSK3, AURKA, and AMPKα1.

[5] = target: T2, Cdk5/p25 (Homo sapiens, UniProt Q00535); experiment: In vitro kinase profile (ProQinase); assay type: biochemical
T2 construct: purchased ProQinase (Freiburg, Germany)
Experimental: as §1

[6] = target: T3, Cdk2/CycE (Homo sapiens, UniProt P24941); experiment: In vitro kinase profile (ProQinase); assay type: biochemical
T3 construct: purchased ProQinase (Freiburg, Germany)
Experimental: as §1

[7] = target: T4, Cdk9/CycT (Homo sapiens, UniProt P50750); experiment: In vitro kinase profile (ProQinase); assay type: biochemical
T4 construct: purchased ProQinase (Freiburg, Germany)
Experimental: as §1

[8] = target: T5, Cdk4/CycD1 (Homo sapiens, UniProt P11802); experiment: In vitro kinase profile (ProQinase); assay type: biochemical
T5 construct: purchased ProQinase (Freiburg, Germany)
Experimental: as §1

T5 sequence (P11802 whole entry): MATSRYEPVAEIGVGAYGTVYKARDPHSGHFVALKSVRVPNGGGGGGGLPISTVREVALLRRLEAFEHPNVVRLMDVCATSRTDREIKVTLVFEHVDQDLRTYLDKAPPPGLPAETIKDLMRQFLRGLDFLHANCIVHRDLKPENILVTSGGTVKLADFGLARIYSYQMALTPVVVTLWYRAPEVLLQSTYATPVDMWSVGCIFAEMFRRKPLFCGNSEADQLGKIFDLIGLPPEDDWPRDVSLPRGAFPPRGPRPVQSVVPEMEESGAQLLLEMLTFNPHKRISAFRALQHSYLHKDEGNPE
T5 sequence (P24385 whole entry partner): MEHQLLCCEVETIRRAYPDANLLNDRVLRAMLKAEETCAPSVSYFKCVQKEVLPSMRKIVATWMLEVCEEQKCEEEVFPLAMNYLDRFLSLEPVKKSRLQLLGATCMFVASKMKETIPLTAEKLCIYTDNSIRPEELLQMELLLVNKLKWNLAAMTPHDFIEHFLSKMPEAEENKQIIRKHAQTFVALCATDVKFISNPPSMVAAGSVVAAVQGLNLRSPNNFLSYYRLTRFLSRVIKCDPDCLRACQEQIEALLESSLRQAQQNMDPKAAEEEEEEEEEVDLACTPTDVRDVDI
T2 sequence (Q00535 whole entry): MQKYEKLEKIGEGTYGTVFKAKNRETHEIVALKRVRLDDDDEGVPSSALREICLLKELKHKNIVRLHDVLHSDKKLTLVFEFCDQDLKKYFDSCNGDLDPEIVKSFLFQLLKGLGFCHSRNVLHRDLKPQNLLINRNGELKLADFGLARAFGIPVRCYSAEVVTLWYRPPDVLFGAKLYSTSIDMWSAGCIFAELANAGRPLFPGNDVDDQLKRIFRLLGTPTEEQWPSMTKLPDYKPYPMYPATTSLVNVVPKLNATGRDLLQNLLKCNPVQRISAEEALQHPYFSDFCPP
T2 sequence (Q15078 99-307 partner limits assumed): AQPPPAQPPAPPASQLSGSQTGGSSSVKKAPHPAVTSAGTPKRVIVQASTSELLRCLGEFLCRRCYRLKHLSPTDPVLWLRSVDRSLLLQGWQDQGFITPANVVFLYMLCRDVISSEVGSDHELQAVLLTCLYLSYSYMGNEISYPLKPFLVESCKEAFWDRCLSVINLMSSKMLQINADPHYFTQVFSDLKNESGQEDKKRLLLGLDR
T1 sequence (P50613 whole entry): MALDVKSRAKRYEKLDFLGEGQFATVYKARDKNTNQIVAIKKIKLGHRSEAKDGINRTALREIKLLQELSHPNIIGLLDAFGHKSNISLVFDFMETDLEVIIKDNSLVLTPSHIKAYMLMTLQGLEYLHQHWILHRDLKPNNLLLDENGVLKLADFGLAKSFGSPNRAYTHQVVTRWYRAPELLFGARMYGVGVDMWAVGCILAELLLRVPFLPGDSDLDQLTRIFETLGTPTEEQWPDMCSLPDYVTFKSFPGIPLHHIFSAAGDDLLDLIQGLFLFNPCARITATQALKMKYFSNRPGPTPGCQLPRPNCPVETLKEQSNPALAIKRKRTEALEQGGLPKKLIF
T1 sequence (P51946 whole entry partner): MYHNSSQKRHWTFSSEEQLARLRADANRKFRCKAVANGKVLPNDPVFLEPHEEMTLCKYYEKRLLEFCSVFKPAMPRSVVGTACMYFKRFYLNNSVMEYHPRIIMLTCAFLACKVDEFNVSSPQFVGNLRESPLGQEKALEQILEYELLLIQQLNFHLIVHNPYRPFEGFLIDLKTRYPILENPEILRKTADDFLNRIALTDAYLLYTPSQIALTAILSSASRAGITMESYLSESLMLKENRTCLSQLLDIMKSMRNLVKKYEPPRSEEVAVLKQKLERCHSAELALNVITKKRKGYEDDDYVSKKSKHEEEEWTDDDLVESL
T1 sequence (P51948 whole entry partner): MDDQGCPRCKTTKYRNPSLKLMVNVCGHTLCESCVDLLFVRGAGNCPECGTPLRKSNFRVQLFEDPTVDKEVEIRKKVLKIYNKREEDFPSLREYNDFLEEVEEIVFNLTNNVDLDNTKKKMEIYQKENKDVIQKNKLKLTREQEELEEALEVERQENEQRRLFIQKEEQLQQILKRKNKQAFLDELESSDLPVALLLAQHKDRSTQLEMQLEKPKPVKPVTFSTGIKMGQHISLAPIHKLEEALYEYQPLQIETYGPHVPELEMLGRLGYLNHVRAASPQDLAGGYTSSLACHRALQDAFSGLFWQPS
T4 sequence (P50750 whole entry): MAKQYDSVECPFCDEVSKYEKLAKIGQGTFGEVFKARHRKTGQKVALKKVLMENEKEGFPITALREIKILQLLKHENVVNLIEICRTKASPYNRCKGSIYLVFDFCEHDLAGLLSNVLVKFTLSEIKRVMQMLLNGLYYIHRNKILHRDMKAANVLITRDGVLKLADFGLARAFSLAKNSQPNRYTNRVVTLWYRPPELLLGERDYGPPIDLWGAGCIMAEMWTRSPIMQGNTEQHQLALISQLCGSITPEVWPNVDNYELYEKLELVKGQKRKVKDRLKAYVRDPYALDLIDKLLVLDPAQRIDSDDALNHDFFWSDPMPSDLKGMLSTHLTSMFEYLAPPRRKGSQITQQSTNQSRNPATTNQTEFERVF
T4 sequence (O60563 whole entry partner): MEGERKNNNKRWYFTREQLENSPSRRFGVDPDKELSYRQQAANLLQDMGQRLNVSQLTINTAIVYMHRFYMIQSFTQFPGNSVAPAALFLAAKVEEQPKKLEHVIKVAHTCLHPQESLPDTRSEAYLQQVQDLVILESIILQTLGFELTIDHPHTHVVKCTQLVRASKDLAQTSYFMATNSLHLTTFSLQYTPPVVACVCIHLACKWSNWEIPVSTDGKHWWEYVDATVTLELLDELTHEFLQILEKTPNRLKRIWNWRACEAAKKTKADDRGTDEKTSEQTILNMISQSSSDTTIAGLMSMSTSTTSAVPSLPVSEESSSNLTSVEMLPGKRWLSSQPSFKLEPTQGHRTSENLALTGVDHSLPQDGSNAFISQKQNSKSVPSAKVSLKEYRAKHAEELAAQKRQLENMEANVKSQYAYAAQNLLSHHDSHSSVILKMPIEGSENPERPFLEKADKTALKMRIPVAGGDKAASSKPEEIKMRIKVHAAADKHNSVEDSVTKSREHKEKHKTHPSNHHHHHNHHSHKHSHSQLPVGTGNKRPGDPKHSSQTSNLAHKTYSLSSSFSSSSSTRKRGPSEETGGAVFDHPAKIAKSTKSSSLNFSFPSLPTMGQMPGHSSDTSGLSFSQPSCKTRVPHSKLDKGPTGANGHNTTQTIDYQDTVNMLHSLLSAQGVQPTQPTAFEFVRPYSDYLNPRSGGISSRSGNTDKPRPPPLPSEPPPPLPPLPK

Structure (SMILES): CC[C@H](CO)Nc1nc(NCc2ccccc2)c2n[nH]c(C(C)C)c2n1 [LGR 1404, 7-Benzylamino-5(R)-[(1-hydroxymethyl)propylamino]-3-isopropyl-1(2)H-pyrazolo[4,3-d]pyrimidine]
- chemotaxis of endothelial cells (in words) [1]: decrease
- inhibition at 10 µM [1]: 50%
- VEGF-induced vessel formation [2]: completely inhibit
- reduction of total tube length [3]: 25%
- tube and branching point numbers and total tube length (in words) [3]: significant reduction

Structure (SMILES): CC(C)c1n[nH]c2c(NCc3ccccc3)nc(NC3CCCCC3N)nc12 (stereo not drawn) [LGR 1406, 5-[(2-E/Z-aminocyclohexyl)amino]-7-benzylamino-3-isopropyl-1(2)H-pyrazolo[4,3-d]pyrimidine]
- IC50 [4]: > 100 µM
- IC50 [5]: 440 nM
- IC50 [6]: 590 nM
- IC50 [7]: 1000 nM
- IC50 [8]: 15 µM
- chemotaxis of endothelial cells (in words) [1]: decrease
- inhibition at 10 µM [1]: 70%
- VEGF-induced vessel formation [2]: completely inhibit
- reduction of number of branching points [3]: 56%
- reduction of total tube length [3]: 56%
- reduction of tube number [3]: 42%
- tube and branching point numbers and total tube length (in words) [3]: significant reduction

- IC50 [4]: > 100 µM
- IC50 [5]: 1600 nM
- IC50 [6]: 990 nM
- IC50 [7]: 1900 nM
- IC50 [8]: 66 µM
Structure (SMILES): CC(C)c1n[nH]c2c(NCc3ccccc3)nc(NC3CCC(N)CC3)nc12 (stereo not drawn) [LGR 1407, 5-[(4-E-aminocyclohexyl)amino]-7-benzylamino-3-isopropyl-1(2)H-pyrazolo[4,3-d]pyrimidine]
- chemotaxis of endothelial cells (in words) [1]: decrease
- inhibition at 10 µM [1]: 60%
- VEGF-induced vessel formation [2]: completely inhibit
- reduction of number of branching points [3]: 35%
- reduction of total tube length [3]: about 30%
- reduction of tube number [3]: about 30%
- tube and branching point numbers and total tube length (in words) [3]: significant reduction
- reduction of total tube length ([3]; listed as LGR1407): 30%
